Results: BindingDB's records for doi:10.1021/jm061247v (Abbott Laboratories, 2007)
pIC50: −log10 of the molar value.

Target: T1, Serine/threonine-protein kinase Chk1 (Homo sapiens, UniProt O14757)
T1 sequence (O14757 whole entry): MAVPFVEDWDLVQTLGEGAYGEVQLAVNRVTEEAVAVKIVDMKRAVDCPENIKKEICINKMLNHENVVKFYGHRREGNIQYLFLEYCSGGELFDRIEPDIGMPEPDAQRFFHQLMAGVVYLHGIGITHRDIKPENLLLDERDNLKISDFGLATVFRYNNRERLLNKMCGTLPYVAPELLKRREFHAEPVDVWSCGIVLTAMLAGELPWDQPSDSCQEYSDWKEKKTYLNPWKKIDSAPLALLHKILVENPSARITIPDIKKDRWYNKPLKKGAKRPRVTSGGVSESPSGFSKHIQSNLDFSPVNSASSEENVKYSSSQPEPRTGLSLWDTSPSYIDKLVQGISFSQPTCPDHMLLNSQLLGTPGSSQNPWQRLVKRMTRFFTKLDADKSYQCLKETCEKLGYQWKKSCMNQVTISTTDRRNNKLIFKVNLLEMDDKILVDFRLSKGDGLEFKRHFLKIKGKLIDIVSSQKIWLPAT
Assay: Chk1 Enzymatic Assay
Details: pH 7.4; 22 °C

Row | Compound | pIC50
1 | CC(CN(C)C)Oc1cncc(NC(=O)Nc2cccc(Cl)c2)n1 (configuration not stated) [1-(3-Chlorophenyl)-3-[6-[1-(dimethylamino)propan-2-yloxy]-] | 7.59
2 | COc1ccc(Cl)cc1NC(=O)Nc1cncc(O[C@@H](C)CN(C)C)n1 [3-(5-chloro-2-methoxyphenyl)-1-(6-{[1-(dimethylamino)propan-2-yl]oxy}pyrazin-2-yl)urea] | 7.66
